Reference: PMC8315116 (Biochemistry, 2021)
Several values for one entry are separate records, joined by “and”; a condition that tells them apart may be missing. Equal values may be shown once. Read-outs that look alike come from different tables or passages of the source.

How the values were obtained:
[1] = target: T1, human MAT2A (Homo sapiens, UniProt P31153); assay: Inhibition of MAT2A by ATP and triphosphate analogues; format: biochemical
[2] = target: T1, human MAT2A; assay: Thermal melt of MAT2A with Sypro Orange and ligands; conditions: 10 mM MgCl2
[3] = target: T1, human MAT2A; assay: Triphosphate hydrolysis by MAT2A; format: biochemical; conditions: for Km: read-out: Km of triphosphate hydrolysis
[4] = target: T1, human MAT2A; assay: HPLC assay of ATPase activity of MAT2A; format: biochemical; conditions: 80 μM AdoMet or 10 μM ammonium vanadate
[5] = target: T1, human MAT2A; assay: Product inhibition of MAT2A by AdoMet; format: biochemical; conditions: non-competitive
[6] = target: T1, human MAT2A; assay: Inhibition of MAT2A by PNP or PPNP; conditions: non-competitive
[7] = target: T1, human MAT2A; conditions: varied substrate; fits to data of Fig. 2
[8] = target: T1, human MAT2A; assay: ATP analogues as alternative substrates of MAT2A; format: biochemical; conditions: Figure 5C
[9] = 1 mM methionine and 200 μM ATP, NO = no significant inhibition observed

T1 sequence (P31153 whole entry): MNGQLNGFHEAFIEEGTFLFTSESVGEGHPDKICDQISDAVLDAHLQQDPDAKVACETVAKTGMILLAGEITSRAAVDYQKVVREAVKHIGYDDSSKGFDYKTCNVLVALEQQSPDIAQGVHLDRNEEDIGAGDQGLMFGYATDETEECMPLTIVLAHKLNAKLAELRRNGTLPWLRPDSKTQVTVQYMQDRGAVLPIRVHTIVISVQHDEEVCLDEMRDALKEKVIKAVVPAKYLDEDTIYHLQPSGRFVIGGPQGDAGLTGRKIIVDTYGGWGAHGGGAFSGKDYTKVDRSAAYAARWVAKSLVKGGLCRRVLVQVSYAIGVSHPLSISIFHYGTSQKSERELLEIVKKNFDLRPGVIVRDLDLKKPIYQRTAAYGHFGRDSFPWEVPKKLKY

## O=P(O)(O)OP(=O)(O)OP(=O)(O)O [Triphosphate]
[1]; [9]
  Ki: 3.45 µM and 3.4 µM
[2]
  thermal stabilization of MAT2A, in words: large shifts in the Tm
[3]; AdoMet at 150 μM
  rate of triphosphate hydrolysis: 0.07 ± 0.01 s⁻¹
  Km: 6 ± 2 µM
[3]; AdoMet at 1 mM
  kcat of triphosphate hydrolysis: 0.033 ± 0.003 s⁻¹
[3]; without AdoMet present
  Km: 4 ± 2 µM
  rate of triphosphate hydrolysis: 0.020 ± 0.003 s⁻¹

## C[S+](CC[C@H](N)C(=O)[O-])C[C@H]1O[C@@H](n2cnc3c(N)ncnc32)[C@H](O)[C@@H]1O (stereo partly drawn) [AdoMet, S-Adenosyl-L-methionine]
[2]
  thermal stabilization of MAT2A, in words: did little to increase MAT2A stability
[4]
  effect on the ATPase reaction of MAT2A: inhibited
[5]; with respect to ATP
  Ki: 136 ± 7 µM
[5]; with respect to methionine
  Ki: 81 ± 10 µM
[3]; AdoMet at 150 μM versus no AdoMet
  activation of triphosphate hydrolysis: 3.5 fold

## O=P(O)(O)NP(=O)(O)O [Imidodiphosphate]
[6]; Ki, toward ATP
  Ki: 14 ± 1 µM
[6]; Ki, toward methionine
  Ki: 17 ± 2 µM

## O=P(O)(O)NP(=O)(O)OP(=O)(O)O [PPNP, Imidotriphosphate]
[6]; toward ATP
  Ki: 0.86 ± 0.06 µM
[6]; toward methionine
  Ki: 0.76 ± 0.07 µM

## CSCC[C@H](N)C(=O)O [Methionine]
[2]
  shift of thermal melt temperature (Tm) compared to MAT2A alone: 1-3 °C
[7]
  kcat: 0.27 ± 0.01 s⁻¹

## O=P(O)(O)NP(=O)(O)NP(=O)(O)O [PNPNP, (α–β, β–γ)-diimido triphosphate]
[1]; [9]
  Ki: 0.12 ± 0.03 µM
[1]; PNPNP versus PPNP
  increased affinity compared to PPNP: ~10 fold
[1]; read-out: Ki (inhibitor)
  Ki: 0.115 µM
[2]
  shift of thermal melt temperature (Tm) compared to MAT2A alone: > 50 °C

## phosphate
[2]
  thermal stabilization of MAT2A, in words: did little to increase MAT2A stability

## Nc1ncnc2c1ncn2[C@@H]1O[C@H](COP(=O)(O)CP(=O)(O)OP(=O)(O)O)[C@@H](O)[C@H]1O [AMPCPP]
[8]
  production of orthophosphate from methionine and ATP analogue: phosphate formation

## O=P(O)(O)OP(=O)(O)O [pyrophosphate]
[2]
  thermal stabilization of MAT2A, in words: large shifts in the Tm
